According to article PMC12429696, “The Neurotropic Activity of Novel Dermorphin Analogs Active in Systemic and Noninvasive Administration” (International Journal of Molecular Sciences, 2025):
Entries after “also recorded” stand apart in the source; their conditions may differ. Square brackets hold non-standard residues; d marks the D form. Ends that are not written are not given here.

How the values were obtained:
mice [1] = assay: Tail-flick test (radiant heat) in mice; type: in vivo; details: 50 mg/kg; for analgesic action in tail-flick test: 30 and 60 min after administration
Text: (§1) Two tests, “tail-flick” and “hot plate,” were used to evaluate the analgesic action of peptides administered intraperitoneally and intra-gastrically.
The pain stimulus was applied locally to the tail as radiant heat using a Tail Flick Analgesia Meter (Hugo Sachs Elektronik, Germany). A tail-flick latent period of 6 s was considered the maximum time for applying the stimulus (Equation (1): tmax—6 s, maximal duration of pain stimulus).
(§2) The control groups consisted of mice injected with solvent. The tested substances were administered to the animals intraperitoneally and intragastrically in a volume of 0.1 mL of saline per 10 g of body weight. The pain response threshold was measured before and 30 and 60 min after administration.
(§3) In both tests, the final indicator of analgesic action was defined as a 50% or more significant effect on the number of animals in each experimental group, expressed as a percentage of the total number of animals in that group. […]

mice [2] = assay: Hot plate test in mice; type: in vivo; details: 50 mg/kg, 30 and 60 min after administration
Description: as §1, §2
The “hot plate” test evaluates the pain reaction to thermal irritation of the mouse paw. The Hot Plate Model 7280 (Ugo Basile S.R.L., Gemonio, Italy) analgesimeter was used for this test. The maximal duration of the pain stimulus (thermal irritation) was set at 60 s.
as §3

[3] = tested on: isolated preparations of guinea pig ileal smooth muscle; assay: Opioid activity on electrically stimulated isolated guinea pig ileum (GPI); type: cell-based; details: inhibition of electrically stimulated contractions of GPI segment, Krebs solution 34 °C, 10^−9 to 10^−6 M, tests in duplicate
Text: Dermorphin analogs have been tested using the standard guinea pig ileum (GPI) model, The GPI is rich in µ-opioid receptors. Ten peptides were suppressed via electrical stimulation contractions of segment GPI in the studied concentration range (10^−9 to 10^−6 M) (Table 1).
The opioid receptor antagonist naloxone (10^−6 M) prevented or weakened the action of the compounds under investigation, confirming the opioid mechanism of their action. […] Thus, new dermorphin analogs can be agonists of µ-type opioid receptors. However, this needs to be verified using molecular modeling methods in further research. Attila M. et al. (1993) investigated the potential binding of 16 dermorphin analogs to µ and δ opioid receptors in brain cells.
The peripheral opioid activity of the peptides was assessed according to known methodology. A segment of guinea pig ileum (approximately 1 cm long) was placed into a 10 mL organ bath containing Krebs solution at 34 °C. Single pulses stimulated the segment of the ileum (1 g) with a duration of 1 ms and a frequency of 0.1 Hz at 80 V. Contractions were recorded in isometric mode using a K30 sensor (Hugo Sachs Elektronic KG, March, Germany).
All tests for each molecule were performed in duplicate. Based on the data obtained, dose-effect curves were plotted, and the IC50 index was determined as the concentration of the substance that causes 50% of the maximal inhibitory effect.

κ receptors = tested on: κ receptors; design: method as in PMID 3033543; details: rat brain; cited from earlier work
µ-opioid receptors = tested on: µ-opioid receptors; design: method as in PMID 3033543; details: cited from earlier work
δ-opioid receptors = tested on: δ-opioid receptors; design: method as in PMID 3033543; details: rat brain; cited from earlier work
rats [4] = assay: Water immersion tail-flick test in rats; type: in vivo, Wistar rats; details: for duration of analgesic effect: intraperitoneal, 5 mg/kg, water tail-flick 56 °C
rats [5] = assay: Open field test in rats with intranasal administration; type: in vivo, Wistar rats; details: n = 7, open field 2 min
Description: The experiments were conducted in an automated “open-field” chamber that registered and processed computer data. They were conducted in two replicates on 64 male Wistar rats weighing 240–260 g. The “open-field” is a round arena with a diameter of 80 cm, lined with three concentric circles and eight diameters. During the experiment, the rat was placed in the center of the arena. Motor activity (measured as the number of segments passed), the number of departures from the arena wall, vertical activity (the number of rises on the hind legs), and the number of touches of the muzzle with the paws (washing) were visually assessed for two minutes. A 500-watt household electric bell and a 15-watt red lamp were placed 80 cm above the arena. The study was conducted in silence and under the light of the red lamp.
Animals were divided into groups: untrained intact animals and trained experimental animals. All animals were divided into five groups: • In the intact group, animals without training were injected with 0.05 mL of physiological solution one minute before being placed in the “open field.” (n = 33). • The control group consisted of animals adapted after a 5-day administration of 0.5 mL of saline (n = 10). • Single drug action at a 15 μg/kg dose was administered to adapted animals (n = 7). • Adapted animals (n = 7) received a 50 μg/kg dose of a single drug action. • Single drug action at a 150 μg/kg dose was administered to adapted animals (n = 7).

[6] = intracerebroventricular, 1.0 μg/kg

COc1cccc(C2(O)CCCCC2CN(C)C)c1 (stereo not shown) [tramadol, reference compound]
analgesic action in tail-flick test (mice [1]; intragastric): active | analgesic action in hot plate test (mice [2]; intragastric): no significant analgesic effect

Cyclo-[L-Lys(H-Tyr-D-Ala-Phe-D-Ala)-L-Glu(OH)] (head to tail) [D6]
Index IC50 [3]: 0.57 µM

Cyclo-[L-Lys(H-Tyr-D-Ala-Phe-D-Ala)-L-Glu-(L-TrpOMe)] (head to tail) [D7]
Index IC50 [3]: 2 µM

Cyclo-[L-Lys(H-Tyr-D-Ala-Phe-D-Ala-Tyr-Pro-Ser)-L-Glu(L-Trp-NH2)] (head to tail) [D3]
Index IC50 [3]: 0.033 µM | analgesic action in tail-flick test (mice [1]; intragastric): active after 30 and 60 min | duration of activity in tail-flick test (mice [1]; intraperitoneal): 60 min | analgesic action in tail-flick test (mice [1]; intraperitoneal): high analgesic activity | analgesic action in hot plate test (mice [2]; intragastric): no significant analgesic effect | analgesic action in hot plate test (mice [2]; intraperitoneal): highest activity for 60 min; also recorded: active as tramadol

Cyclo-[L-Lys(H-Tyr-D-Ala-Phe-D-Ala-Tyr-Pro-Ser)-L-Glu(L-Trp-OH)] (head to tail) [D4]
Index IC50 [3]: 0.011 µM | analgesic action in tail-flick test (mice [1]; intragastric): active after 30 and 60 min | analgesic action in tail-flick test (mice [1]; intraperitoneal): high analgesic activity | analgesic action in hot plate test (mice [2]; intragastric): no significant analgesic effect | analgesic action in hot plate test (mice [2]; intraperitoneal): moderately active; also recorded: active as tramadol

H-RY[dA]F[dA]-OH (SMILES C[C@@H](NC(=O)[C@H](Cc1ccccc1)NC(=O)[C@@H](C)NC(=O)[C@H](Cc1ccc(O)cc1)NC(=O)[C@@H](N)CCCNC(=N)N)C(=O)O) [D9]
Index IC50 [3]: 1 µM

H-Tyr-D-Ala-Phe-Gly-Tyr-Pro-Ser-NH2 [D1, reference compound]
Index IC50 [3]: 0.0025 µM | affinity for κ receptors (κ receptors): low affinity | analgesic action in tail-flick test (mice [1]; intragastric): did not exhibit analgesic action | duration of activity in tail-flick test (mice [1]; intraperitoneal): 60 min | affinity for µ-opioid receptors (µ-opioid receptors): very high affinity | affinity for δ-opioid receptors (δ-opioid receptors): low affinity | duration of analgesic effect (rats [4]): approximately 1 h | analgesic action in hot plate test (mice [2]; intragastric): did not exhibit analgesic action | analgesic action in hot plate test (mice [2]; intraperitoneal): active as tramadol

H-Y[dA]F[dA]-OH (SMILES C[C@@H](NC(=O)[C@H](Cc1ccccc1)NC(=O)[C@@H](C)NC(=O)[C@@H](N)Cc1ccc(O)cc1)C(=O)O) [D10, reference compound]
Index IC50 [3]: 1 µM

H-Y[dA]F[dA]YPS-NHMe (SMILES CNC(=O)[C@H](CO)NC(=O)[C@@H]1CCCN1C(=O)[C@H](Cc1ccc(O)cc1)NC(=O)[C@@H](C)NC(=O)[C@H](Cc1ccccc1)NC(=O)[C@@H](C)NC(=O)[C@@H](N)Cc1ccc(O)cc1) [D2]
Defecation (rats [5]; 15 µg/kg): 0.92 ± 0.26 | Dive (rats [5]; 15 µg/kg): 6.17 ± 1.63 | Grooming (rats [5]; 15 µg/kg): 1.58 ± 0.42 | Path (rats [5]; 15 µg/kg): 23.83 ± 7.16 | Stand (rats [5]; 15 µg/kg): 8.83 ± 3.03 | Urination (rats [5]; 15 µg/kg): 0.25 ± 0.13 | Defecation (rats [5]; 50 µg/kg): 1.10 ± 0.18 | Dive (rats [5]; 50 µg/kg): 3.40 ± 0.76 | Grooming (rats [5]; 50 µg/kg): 0.90 ± 0.46 | Path (rats [5]; 50 µg/kg): 21.80 ± 6.16 | Stand (rats [5]; 50 µg/kg): 4.50 ± 1.35 | Urination (rats [5]; 50 µg/kg): 0.20 ± 0.13 | Defecation (rats [5]; 150 µg/kg): 0.60 ± 0.22 | Dive (rats [5]; 150 µg/kg): 2.90 ± 0.99 | Grooming (rats [5]; 150 µg/kg): 1.00 ± 0.39 | Path (rats [5]; 150 µg/kg): 14.80 ± 3.80 | Stand (rats [5]; 150 µg/kg): 4.70 ± 1.45 | Urination (rats [5]; 150 µg/kg): 0.10 ± 0.10 | Index IC50 [3]: 0.0095 µM | analgesic action in tail-flick test (mice [1]; intragastric): active in the “tail-flick” test only 30 min after administration | analgesic effect (rats [4]; [6]): potent analgesia | observed side effects (rats [4]; [6]): severe muscle tension, and numbness | observed side effects (rats [4]; intracerebroventricular, 2.5 μg/kg): complete immobility and catatonic effects | analgesic effect (A) (rats [4]; intracerebroventricular, 2.5 μg/kg, n = 7): 100% | observed side effects (rats [4]; intranasal, 0.5 µg/kg): short-term state of stupor | analgesic effect (rats [4]; intranasal, 1.0 µg/kg): maximum long-lasting analgesia | observed side effects (rats [4]; intranasal, 1.0 µg/kg): complete stupor | duration of analgesic effect (rats [4]): up to 5 h | analgesic action in hot plate test (mice [2]; intragastric): no significant analgesic effect | analgesic action in hot plate test (mice [2]; intraperitoneal): significant activity only at 30 min; also recorded: active only for 30 min

H-Y[dA]F[dA]YPS-OH (SMILES C[C@@H](NC(=O)[C@H](Cc1ccccc1)NC(=O)[C@@H](C)NC(=O)[C@@H](N)Cc1ccc(O)cc1)C(=O)N[C@@H](Cc1ccc(O)cc1)C(=O)N1CCC[C@H]1C(=O)N[C@@H](CO)C(=O)O) [D5]
Index IC50 [3]: 0.76 µM

RY[dA]FG-OH (N-terminus assumed; SMILES C[C@@H](NC(=O)[C@H](Cc1ccc(O)cc1)NC(=O)[C@@H](N)CCCNC(=N)N)C(=O)N[C@@H](Cc1ccccc1)C(=O)NCC(=O)O) [D8]
Index IC50 [3]: 3 µM
